Data: publication PMC7076669 (Pharmaceutics, 2020)
In brackets after ≈: the same amount, converted by molar mass. Read-outs that look alike come from different tables or passages of the source.

Experiments:
[1] = Visual solubility of ibuprofen in liquid excipients; assay type: physicochemical; conditions: for Ibuprofen Solubility in Excipient: visual solubility
Description: In this method, the excipients were accurately weighed (2.5 g) in individually-labelled 20 mL scintillation vials. […] Further, the vials were placed in a shaking water bath (Fisher Scientific, Waltham, MA, USA) maintained at 25 °C for at least 15 min to allow proper mixing.

[2] = cited from earlier work
[3] = in MCT 70 (medium chain triglycerides), 25 °C
[4] = in oleyl alcohol (Kollicream OA), 25 °C
[5] = in propylene glycol (Kollicream PG), 25 °C

In the case of `CC(C)Cc1ccc(C(C)C(=O)O)cc1` (stereo not drawn) [Ibuprofen, α-methyl-4-(2-methylpropyl) benzeneacetic acid], the “Ibuprofen solubility, Percentage” value ([1]; in Kolliphor PS 80, 25 °C) is reported as 18%, the “Ibuprofen Solubility in Excipient” value ([1]; in Kolliphor PS 80, 25 °C) is reported as 180 mg/g and the “Ibuprofen solubility, Percentage” value [1, 3] is reported as 14%. For the same compound, the “Ibuprofen Solubility in Excipient” value [1, 3] was 140 mg/g, the “Ibuprofen solubility, Percentage” value ([1]; in PEG 400, 25 °C) was 19% and the “Ibuprofen Solubility in Excipient” value ([1]; in PEG 400, 25 °C) was 190 mg/g. The “Ibuprofen solubility, Percentage” value ([1]; in Transcutol, 25 °C) was 30%, the “Ibuprofen Solubility in Excipient” value ([1]; in Transcutol, 25 °C) was 300 mg/g and the “Ibuprofen solubility, Percentage” value ([1]; in glycerol, 25 °C) was 0.4%. The “Ibuprofen Solubility in Excipient” value ([1]; in glycerol, 25 °C) was 4 mg/g, the “Ibuprofen solubility, Percentage” value ([1]; in isopropyl myristate, 25 °C) was 20% and the “Ibuprofen Solubility in Excipient” value ([1]; in isopropyl myristate, 25 °C) was 200 mg/g. The “Ibuprofen solubility, Percentage” value ([1]; in mineral oil, 25 °C) was 6%, the “Ibuprofen Solubility in Excipient” value ([1]; in mineral oil, 25 °C) was 60 mg/g and the “Ibuprofen solubility, Percentage” value [1, 4] was 18%. The “Ibuprofen Solubility in Excipient” value [1, 4] was 180 mg/g, the “Ibuprofen solubility, Percentage” value [1, 5] was 30% and the “Ibuprofen Solubility in Excipient” value [1, 5] was 300 mg/g. For the same compound, the aqueous solubility ([2]; pH 4.5) was 0.084 µg/mL (≈ 0.407 µM) and the aqueous solubility ([2]; pH 5.54) was 0.685 µg/mL (≈ 3.32 µM).
